Data reported in patent publication US20210196627A1, “SYSTEMS FOR ENTERIC DELIVERY OF THERAPEUTIC AGENTS” (Lyndra, Inc., priority 2018, published 2021).

Test: Memantine bioanalysis in plasma after duodenal placement of stellate system (LC-MS/MS)
Format: in vivo, beagle dogs
Text: Six male beagle dogs (each weighing ˜10 kg) were anesthetized and intubated, and stellate-shaped systems bearing memantine drug arms were placed endoscopically through the pylorus into the duodenum. Each stellate system contained steel beads at the tips of the drug arms which facilitated X-ray imaging for confirming successful duodenal placement.
X-rays were collected daily to monitor residence time in the small intestine. Blood samples were collected through Day 10 of the study and processed to plasma for quantitation of memantine using an LC-MS/MS assay. The dogs were monitored for the duration of the study for safety.

## CC12CC3CC(C)(C1)CC(N)(C3)C2 [memantine]
Dog plasma, stellate system placed in duodenum, blood sampled through Day 10
  time for which sustained release of memantine was measurable: 7 days
male, beagle, memantine in dog plasma, stellate system placed endoscopically in duodenum
  Tmax: 8 h
Memantine in dog plasma, stellate system placed in duodenum
  exposure from the small intestine: good exposure
